The source made the active and inactive calls.
Tests used:
[1] = target: Cytochrome P450 3A4 (Homo sapiens, UniProt P08684);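 note: CYP3A4 tested as one member of a cytochrome P450 panel screen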
[2] = target: Cysteine protease ATG4B (Homo sapiens, UniProt Q9Y4P1); type: functional;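 note: Fluorescence-based dose-response confirmation assay measuring inhibition of ATG4B activity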
[3] = target: Phospholipase A2 (Homo sapiens, UniProt P04054); type: functional;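 note: confirmatory dose-response counterscreen on phospholipase A2, testing hits that came from an ultra-high-throughput screen for ATG4B inhibitors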
Chain of Phospholipase A2 (P04054 whole entry): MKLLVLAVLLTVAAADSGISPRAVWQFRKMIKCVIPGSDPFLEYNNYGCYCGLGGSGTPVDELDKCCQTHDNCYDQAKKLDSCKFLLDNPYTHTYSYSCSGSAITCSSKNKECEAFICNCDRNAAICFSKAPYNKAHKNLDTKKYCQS

[4] = target: Dual specificity tyrosine-phosphorylation-regulated kinase 1A (Rattus norvegicus, UniProt Q63470); type: biochemical, Homo sapiens
[5] = cytotoxicity in MIN6 insulinoma cells, dose response, cytotoxicity control, cell-based, mouse insulinoma (AID 2122); type: functional;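 note: confirmatory high-throughput counterscreen run to flag cytotoxic compounds; mouse MIN-6 beta cells carrying an insulin promoter eGFP reporter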
[6] = insulin promoter down-regulators in MIN6 cells, imaging, high-content screening, mouse beta cells (AID 1628); type: functional
[7] = target: T1, Corticotropin-releasing factor receptor 2/Corticotropin-releasing factor-binding protein (Homo sapiens, UniProt P24387+Q13324); experiment: Dose Response confirmation of uHTS hits for small molecule antagonists of the CRF-binding protein and CRF-R2 receptor complex.; type: functional; conditions: read-out: IC50_Mean
T1 sequence (Q13324 whole entry): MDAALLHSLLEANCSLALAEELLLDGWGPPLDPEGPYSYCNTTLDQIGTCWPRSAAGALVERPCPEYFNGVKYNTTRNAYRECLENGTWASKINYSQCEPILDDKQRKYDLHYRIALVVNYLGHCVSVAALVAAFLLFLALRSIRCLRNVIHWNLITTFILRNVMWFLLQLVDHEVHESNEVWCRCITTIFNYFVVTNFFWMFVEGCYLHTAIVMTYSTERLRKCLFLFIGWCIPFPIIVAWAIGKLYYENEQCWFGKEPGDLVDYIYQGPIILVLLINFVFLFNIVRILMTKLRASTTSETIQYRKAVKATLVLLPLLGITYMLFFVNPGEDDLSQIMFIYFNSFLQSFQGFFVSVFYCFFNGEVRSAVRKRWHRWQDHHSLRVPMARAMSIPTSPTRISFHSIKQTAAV
T1 sequence (P24387 whole entry): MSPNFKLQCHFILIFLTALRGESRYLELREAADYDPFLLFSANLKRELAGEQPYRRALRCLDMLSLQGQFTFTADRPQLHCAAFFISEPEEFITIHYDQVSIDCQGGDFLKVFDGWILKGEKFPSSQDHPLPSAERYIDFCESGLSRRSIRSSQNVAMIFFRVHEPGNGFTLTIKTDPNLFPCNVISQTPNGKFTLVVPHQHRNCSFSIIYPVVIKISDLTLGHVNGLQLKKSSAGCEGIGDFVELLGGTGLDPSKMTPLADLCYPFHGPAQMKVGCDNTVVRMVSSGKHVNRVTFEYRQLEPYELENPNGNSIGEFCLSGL

[8] = CRF-BP/CRF-R2 complex antagonists, dose response, cell-based, uHTS hits, 384-well (AID 651639); type: functional, Homo sapiens; conditions: read-out: IC50_Mean
[9] = target: T1, Corticotropin-releasing factor receptor 2/Corticotropin-releasing factor-binding protein; experiment: activators of CRF receptor 2 with binding protein – uHTS hits, confirmation (AID 602473); type: functional; conditions: read-out: EC50_Mean
[10] = target: T2, Mannose-6-phosphate isomerase (Homo sapiens, UniProt P34949); experiment: human PMI inhibitors, high substrate, primary screen, biochemical, fluorescence intensity, high mannose 6-phosphate (AID 1220)
T2 sequence (P34949 whole entry): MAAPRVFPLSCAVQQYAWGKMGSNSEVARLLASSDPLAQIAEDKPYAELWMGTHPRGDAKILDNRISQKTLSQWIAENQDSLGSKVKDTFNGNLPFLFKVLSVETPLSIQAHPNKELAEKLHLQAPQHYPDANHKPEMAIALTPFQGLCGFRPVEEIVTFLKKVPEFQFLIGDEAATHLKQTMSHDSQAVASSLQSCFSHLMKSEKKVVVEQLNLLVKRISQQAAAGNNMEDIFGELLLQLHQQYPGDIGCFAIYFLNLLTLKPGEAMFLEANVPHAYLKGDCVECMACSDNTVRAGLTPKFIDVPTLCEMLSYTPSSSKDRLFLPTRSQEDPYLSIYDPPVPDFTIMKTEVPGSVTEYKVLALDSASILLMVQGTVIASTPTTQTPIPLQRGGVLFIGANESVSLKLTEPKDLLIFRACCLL

[11] = target: Glucose-6-phosphate 1-dehydrogenase (Homo sapiens, UniProt P11413); experiment: human G6PD enzyme inhibitors, dose response, selectivity assay for P. falciparum G6PD inhibitor project, biochemical, fluorescence (AID 504792); type: functional
Chain of Glucose-6-phosphate 1-dehydrogenase (P11413 whole entry): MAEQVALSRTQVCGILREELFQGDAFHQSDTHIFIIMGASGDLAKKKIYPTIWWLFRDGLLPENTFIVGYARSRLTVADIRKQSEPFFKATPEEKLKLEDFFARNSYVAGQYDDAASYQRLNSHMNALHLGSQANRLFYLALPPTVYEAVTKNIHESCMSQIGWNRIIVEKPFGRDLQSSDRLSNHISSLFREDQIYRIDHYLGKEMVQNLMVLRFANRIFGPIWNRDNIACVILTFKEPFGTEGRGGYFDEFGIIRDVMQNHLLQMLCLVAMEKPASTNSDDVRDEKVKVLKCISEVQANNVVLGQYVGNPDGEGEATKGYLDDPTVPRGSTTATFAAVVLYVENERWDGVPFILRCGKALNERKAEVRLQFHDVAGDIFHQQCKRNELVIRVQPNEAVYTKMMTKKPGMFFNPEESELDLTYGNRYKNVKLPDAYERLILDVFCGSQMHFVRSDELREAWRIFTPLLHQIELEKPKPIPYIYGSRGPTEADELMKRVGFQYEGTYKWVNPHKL

[12] = target: T3, Long-chain-fatty-acid--AMP ligase FadD28 (Mycobacterium tuberculosis, UniProt P9WQ59); experiment: Fluorescence polarization aasay to screen for inhibitors that compete for the binding of FadD28 to a bisubstrate Measured in Biochemical System Using Plate Reader - 2147-01_Inhibitor_Dose_CherryPick_Activity.; type: functional, Mycobacterium tuberculosis H37Rv
T3 sequence (P9WQ59 whole entry): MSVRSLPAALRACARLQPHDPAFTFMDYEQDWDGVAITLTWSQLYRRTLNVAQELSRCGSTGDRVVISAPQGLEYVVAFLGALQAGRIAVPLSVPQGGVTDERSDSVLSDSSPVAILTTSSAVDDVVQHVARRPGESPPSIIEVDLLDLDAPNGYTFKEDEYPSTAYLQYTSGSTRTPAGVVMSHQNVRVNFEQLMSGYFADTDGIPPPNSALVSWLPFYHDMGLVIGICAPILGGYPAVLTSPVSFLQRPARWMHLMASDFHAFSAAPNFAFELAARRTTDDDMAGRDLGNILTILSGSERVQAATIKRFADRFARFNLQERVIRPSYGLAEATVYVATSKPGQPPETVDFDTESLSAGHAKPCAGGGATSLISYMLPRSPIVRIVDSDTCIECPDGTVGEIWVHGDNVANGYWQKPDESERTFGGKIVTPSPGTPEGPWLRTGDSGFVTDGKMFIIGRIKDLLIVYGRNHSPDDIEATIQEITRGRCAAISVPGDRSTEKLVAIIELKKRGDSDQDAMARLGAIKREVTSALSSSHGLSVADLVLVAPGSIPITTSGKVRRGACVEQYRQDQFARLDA

[13] = target: Genome polyprotein (dengue virus type 2, UniProt P29990); experiment: Dengue-2 NS5 methyltransferase inhibitors, primary screen, biochemical, confirmation dose response (AID 588689); type: functional
Chain of Genome polyprotein (P29990 2492-3391 limits assumed): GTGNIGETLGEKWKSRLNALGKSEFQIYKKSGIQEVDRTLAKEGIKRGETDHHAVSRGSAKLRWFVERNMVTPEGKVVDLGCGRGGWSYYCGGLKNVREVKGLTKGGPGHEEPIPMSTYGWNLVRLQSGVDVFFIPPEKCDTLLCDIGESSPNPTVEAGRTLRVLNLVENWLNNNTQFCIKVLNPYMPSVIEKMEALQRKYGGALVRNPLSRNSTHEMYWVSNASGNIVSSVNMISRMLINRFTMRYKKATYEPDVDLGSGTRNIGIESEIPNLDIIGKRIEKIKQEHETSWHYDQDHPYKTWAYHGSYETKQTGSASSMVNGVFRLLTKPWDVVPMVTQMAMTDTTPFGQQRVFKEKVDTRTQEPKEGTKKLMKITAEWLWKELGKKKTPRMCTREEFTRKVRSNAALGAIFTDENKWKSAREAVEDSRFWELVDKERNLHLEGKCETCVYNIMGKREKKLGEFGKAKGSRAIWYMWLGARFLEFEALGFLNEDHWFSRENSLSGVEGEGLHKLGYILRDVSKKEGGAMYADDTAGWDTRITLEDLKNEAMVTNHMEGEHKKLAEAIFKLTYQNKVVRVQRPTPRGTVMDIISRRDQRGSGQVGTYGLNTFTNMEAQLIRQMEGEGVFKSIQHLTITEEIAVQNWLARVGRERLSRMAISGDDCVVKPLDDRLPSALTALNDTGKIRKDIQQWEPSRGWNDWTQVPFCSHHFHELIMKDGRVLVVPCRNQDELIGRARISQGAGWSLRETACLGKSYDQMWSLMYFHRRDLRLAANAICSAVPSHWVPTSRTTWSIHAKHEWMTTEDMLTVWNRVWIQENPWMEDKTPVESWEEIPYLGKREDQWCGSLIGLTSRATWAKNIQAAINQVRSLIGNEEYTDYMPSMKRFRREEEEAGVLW

[14] = target: T4, Hexokinase HKDC1 (Homo sapiens, UniProt Q2TB90); experiment: HKDC1 hexokinase inhibitors, dose response, biochemical, W721R variant (AID 504729); type: functional
T4 sequence (Q2TB90 whole entry): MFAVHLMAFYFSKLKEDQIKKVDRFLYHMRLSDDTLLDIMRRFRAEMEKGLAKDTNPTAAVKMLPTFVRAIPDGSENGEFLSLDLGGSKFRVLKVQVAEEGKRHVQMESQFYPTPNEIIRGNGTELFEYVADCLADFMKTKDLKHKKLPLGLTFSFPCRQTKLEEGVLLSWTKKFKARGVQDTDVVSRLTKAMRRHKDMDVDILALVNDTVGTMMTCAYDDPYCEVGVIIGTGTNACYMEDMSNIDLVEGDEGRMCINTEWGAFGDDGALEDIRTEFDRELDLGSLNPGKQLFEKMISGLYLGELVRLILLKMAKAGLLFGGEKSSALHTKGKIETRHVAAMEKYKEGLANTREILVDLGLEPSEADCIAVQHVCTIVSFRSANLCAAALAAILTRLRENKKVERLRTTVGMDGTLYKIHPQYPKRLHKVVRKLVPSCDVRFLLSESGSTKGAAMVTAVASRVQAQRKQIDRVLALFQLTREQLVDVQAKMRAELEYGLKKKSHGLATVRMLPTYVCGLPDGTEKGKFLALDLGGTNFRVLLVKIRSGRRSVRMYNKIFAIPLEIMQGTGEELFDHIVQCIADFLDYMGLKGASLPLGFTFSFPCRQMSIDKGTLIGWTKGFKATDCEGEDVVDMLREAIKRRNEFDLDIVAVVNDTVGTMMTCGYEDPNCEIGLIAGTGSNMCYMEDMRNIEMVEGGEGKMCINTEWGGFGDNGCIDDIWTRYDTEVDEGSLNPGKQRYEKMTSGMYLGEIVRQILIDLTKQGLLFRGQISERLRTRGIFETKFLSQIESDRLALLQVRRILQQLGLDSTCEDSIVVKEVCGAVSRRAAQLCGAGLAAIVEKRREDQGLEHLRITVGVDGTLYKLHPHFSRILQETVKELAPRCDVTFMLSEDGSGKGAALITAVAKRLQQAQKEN

[15] = target: T2, Mannose-6-phosphate isomerase; experiment: PMI enzyme inhibitors, confirmation, biochemical, fluorescence intensity (AID 1535)
[16] = target: Phosphomannomutase 2 (Homo sapiens, UniProt O15305); experiment: Counter screen SAR assay for PMM2 inhibitors via a fluorescence intensity assay. [Related pubchem assays (depositor defined):AID1545, AID1574]
Chain of Phosphomannomutase 2 (O15305 whole entry): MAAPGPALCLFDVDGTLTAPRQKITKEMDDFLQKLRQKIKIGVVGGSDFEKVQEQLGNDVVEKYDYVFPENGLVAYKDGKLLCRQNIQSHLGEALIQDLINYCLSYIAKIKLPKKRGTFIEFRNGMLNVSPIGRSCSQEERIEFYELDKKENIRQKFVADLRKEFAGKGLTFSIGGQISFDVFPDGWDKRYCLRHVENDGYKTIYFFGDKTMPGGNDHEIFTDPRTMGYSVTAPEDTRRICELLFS

[17] = target: T5, Cytochrome P450 1A2 (Homo sapiens, UniProt P05177);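 note: PubChem cytochrome P450 panel assay, CYP1A2 panel member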
T5 sequence (P05177 whole entry): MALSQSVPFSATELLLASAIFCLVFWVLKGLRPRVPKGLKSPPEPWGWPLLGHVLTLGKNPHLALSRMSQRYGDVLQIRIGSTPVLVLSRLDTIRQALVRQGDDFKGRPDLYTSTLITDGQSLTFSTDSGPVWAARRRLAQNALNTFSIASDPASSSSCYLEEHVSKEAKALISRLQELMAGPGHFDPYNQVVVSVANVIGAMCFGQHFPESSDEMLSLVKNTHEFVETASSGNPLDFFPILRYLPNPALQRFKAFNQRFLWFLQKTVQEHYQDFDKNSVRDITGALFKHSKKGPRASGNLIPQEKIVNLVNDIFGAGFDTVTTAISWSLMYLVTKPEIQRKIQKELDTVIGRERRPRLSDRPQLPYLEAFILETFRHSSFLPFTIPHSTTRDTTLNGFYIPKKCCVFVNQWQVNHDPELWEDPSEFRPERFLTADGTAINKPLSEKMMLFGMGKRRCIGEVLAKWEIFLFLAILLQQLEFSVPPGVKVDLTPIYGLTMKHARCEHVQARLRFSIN

[18] = target: Cytochrome P450 2C19 (Homo sapiens, UniProt P33261); experiment: Cytochrome panel assay with activity outcomes. Panel member name: p450-cyp2c19 Compounds with AC50 equal or less than 10 uM are considered active; type: functional
Chain of Cytochrome P450 2C19 (P33261 whole entry): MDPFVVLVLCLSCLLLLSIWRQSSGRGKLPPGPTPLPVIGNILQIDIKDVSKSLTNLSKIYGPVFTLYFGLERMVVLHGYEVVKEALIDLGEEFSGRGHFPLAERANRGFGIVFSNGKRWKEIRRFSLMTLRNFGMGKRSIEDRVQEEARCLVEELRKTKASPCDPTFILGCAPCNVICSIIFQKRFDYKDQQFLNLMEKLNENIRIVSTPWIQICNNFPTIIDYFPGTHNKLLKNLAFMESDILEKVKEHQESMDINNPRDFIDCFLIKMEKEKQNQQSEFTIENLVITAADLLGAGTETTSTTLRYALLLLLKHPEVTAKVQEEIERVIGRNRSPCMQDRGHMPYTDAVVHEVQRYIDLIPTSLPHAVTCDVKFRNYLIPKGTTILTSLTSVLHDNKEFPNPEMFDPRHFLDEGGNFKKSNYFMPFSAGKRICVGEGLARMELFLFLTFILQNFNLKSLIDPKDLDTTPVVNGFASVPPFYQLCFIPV

[19] = target: T6, Polyadenylate-binding protein 1 (Homo sapiens, UniProt P11940); experiment: PABP1 MLLE–PAM2 binding inhibitor potency, dose response, biochemical, fluorescence polarization, FITC-PAM2 peptide (AID 602259); type: functional; conditions: read-out: IC50_Mean
T6 sequence (P11940 whole entry): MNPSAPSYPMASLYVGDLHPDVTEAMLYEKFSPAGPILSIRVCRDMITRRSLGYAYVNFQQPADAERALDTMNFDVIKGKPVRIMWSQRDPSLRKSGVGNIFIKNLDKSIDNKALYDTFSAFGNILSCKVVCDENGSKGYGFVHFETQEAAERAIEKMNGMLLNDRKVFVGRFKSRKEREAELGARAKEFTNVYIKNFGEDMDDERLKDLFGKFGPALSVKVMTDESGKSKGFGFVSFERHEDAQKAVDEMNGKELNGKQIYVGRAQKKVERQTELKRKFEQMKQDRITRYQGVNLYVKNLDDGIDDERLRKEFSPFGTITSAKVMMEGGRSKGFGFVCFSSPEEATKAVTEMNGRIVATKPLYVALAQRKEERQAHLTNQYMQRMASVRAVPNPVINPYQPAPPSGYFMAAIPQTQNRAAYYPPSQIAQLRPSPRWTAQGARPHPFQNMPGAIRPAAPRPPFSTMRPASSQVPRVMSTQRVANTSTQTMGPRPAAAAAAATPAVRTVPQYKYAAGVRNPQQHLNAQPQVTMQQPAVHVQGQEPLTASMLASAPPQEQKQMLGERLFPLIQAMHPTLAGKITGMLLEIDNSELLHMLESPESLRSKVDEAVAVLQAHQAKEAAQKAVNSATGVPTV

[20] = target: T6, Polyadenylate-binding protein 1; experiment: PABP1 MLLE–PAM2 interaction inhibitors, dose response, miRNA deadenylation inhibitor project, biochemical, fluorescence polarization, Cy5-PAM2 peptide, secondary (AID 602260); type: functional; conditions: read-out: IC50_Mean
[21] = target: Voltage-gated inwardly rectifying potassium channel KCNH2 (Homo sapiens, UniProt Q12809); conditions: Potency;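 note: confirmatory quantitative high-throughput screen measuring inhibition of hERG channel activity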
Chain of Voltage-gated inwardly rectifying potassium channel KCNH2 (Q12809 whole entry): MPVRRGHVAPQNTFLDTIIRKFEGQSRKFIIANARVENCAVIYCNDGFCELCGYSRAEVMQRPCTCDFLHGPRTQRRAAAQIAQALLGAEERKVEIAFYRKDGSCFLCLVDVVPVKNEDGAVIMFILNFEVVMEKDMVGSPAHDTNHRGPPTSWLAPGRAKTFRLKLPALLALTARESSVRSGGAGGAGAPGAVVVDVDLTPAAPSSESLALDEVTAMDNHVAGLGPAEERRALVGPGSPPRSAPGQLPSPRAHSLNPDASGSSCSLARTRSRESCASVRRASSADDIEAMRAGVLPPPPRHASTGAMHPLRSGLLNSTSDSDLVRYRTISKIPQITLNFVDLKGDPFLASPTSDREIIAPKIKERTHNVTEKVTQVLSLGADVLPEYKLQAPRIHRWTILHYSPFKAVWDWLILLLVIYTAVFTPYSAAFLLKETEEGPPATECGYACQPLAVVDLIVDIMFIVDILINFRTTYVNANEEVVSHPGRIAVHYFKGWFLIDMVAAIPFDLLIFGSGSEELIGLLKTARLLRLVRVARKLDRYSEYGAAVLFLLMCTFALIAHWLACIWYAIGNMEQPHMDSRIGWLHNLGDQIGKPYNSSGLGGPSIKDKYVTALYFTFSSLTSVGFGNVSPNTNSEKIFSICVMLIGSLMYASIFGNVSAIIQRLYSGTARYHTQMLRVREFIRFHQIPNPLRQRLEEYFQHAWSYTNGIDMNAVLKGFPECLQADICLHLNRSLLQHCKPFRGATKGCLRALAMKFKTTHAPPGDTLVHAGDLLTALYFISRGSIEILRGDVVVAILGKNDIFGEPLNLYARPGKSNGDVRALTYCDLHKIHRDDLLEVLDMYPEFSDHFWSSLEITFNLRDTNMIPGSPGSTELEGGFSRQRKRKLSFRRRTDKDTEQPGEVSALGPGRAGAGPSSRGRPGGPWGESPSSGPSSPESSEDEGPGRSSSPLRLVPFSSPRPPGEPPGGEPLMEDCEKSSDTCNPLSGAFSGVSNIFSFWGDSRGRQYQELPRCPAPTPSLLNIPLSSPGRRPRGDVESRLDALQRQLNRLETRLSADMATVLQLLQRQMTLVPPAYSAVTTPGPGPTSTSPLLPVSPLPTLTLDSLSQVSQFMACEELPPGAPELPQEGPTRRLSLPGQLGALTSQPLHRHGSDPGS

Chain of Cytochrome P450 3A4 (P08684 whole entry): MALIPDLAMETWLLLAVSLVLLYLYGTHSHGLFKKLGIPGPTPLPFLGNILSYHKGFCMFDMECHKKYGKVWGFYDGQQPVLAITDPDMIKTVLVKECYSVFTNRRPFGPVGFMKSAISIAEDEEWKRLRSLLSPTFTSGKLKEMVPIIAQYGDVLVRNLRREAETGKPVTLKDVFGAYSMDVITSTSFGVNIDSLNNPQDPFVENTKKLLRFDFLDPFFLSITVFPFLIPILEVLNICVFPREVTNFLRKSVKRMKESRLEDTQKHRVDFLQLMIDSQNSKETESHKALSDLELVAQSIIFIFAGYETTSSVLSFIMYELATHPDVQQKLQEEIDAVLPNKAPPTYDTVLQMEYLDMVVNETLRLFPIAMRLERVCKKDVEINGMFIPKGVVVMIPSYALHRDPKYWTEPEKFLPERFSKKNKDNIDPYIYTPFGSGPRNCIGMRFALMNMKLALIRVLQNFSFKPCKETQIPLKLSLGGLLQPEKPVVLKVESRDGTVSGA
Chain of Cysteine protease ATG4B (Q9Y4P1 whole entry): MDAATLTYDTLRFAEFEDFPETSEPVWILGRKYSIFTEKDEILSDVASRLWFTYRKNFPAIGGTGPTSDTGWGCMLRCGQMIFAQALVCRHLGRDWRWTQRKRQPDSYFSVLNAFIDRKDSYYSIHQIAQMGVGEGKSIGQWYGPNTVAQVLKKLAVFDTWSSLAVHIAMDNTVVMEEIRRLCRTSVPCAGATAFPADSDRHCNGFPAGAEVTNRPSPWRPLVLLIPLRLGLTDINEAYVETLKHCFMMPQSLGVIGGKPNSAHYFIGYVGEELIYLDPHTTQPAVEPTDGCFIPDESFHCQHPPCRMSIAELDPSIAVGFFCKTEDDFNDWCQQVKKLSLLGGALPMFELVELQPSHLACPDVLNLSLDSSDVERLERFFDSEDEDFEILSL

COc1ccccc1C(=O)N1CCN(c2ccccn2)CC1
AC50 [1]: inconclusive

O=c1c2ccccc2nc(/C=C/c2ccc(O)cc2)n1CCc1ccccc1
IC50 [2]: 17.2 µM (active) | IC50 [3]: 12.2 µM (active)

COc1ccc2c3c([nH]c2c1)C(C)N(CCC(=O)NN)CC3 (centres undefined)
AC50 [4]: 1.45 µM (active)

COc1ccc(OC)c(-c2csc(NC(=O)c3ccc(OCC4CCCO4)cc3)n2)c1 (centres undefined)
IC50 [5]: 2.19 µM (active) | IC50 [6]: 2.4 µM (active)

c1ccc2c(c1)OCCOCCOCCOCCOCCOc1ccccc1OCCOCCOCCO2
IC50 [7]: 2.76 µM (active) | IC50 [8]: 10.4 µM (active) | IC50 [5]: 5.48 µM (active) | IC50 [6]: 2.89 µM (active) | EC50 [9]: 12.5 µM (active)

COc1ccc(-n2c(=S)[nH]c3c(sc(=S)n3-c3ccccc3)c2=O)c(OC)c1
IC50 [10]: 37.6 µM (active) | IC50 [11]: > 80 µM (inactive)

Nc1ccc(S(=O)(=O)c2cc(O)c3ccccc3c2O)cc1
AC50 [12]: > 100 µM (inactive) | IC50 [13]: 5.47 µM (active) | IC50 [14]: 18.1 µM (active) | IC50 [11]: > 80 µM (inactive)

Clc1ccc(/N=c2\ssnc2Cl)cc1Cl
IC50 [15]: 16.9 µM (active) | IC50 [16]: 88.6 µM (active)

Cc1cc(-n2sc3ccccc3c2=O)c2ccccc2n1
IC50 [15]: > 50 µM (inactive) | IC50 [16]: > 100 µM (inactive)

c1cncc(-c2cccnc2)c1
AC50 [17]: 15.8 µM (inconclusive) | AC50 [18]: inconclusive | AC50 [1]: inconclusive

Cc1ccc(-n2c(SCC(=O)N/N=C/c3c(C)nn(-c4ccccc4)c3C)nc3ccccc3c2=O)cc1
IC50 [19]: > 66 µM (inactive) | IC50 [2]: 14.2 µM (active) | IC50 [20]: > 66 µM (inactive) | IC50 [3]: 1.86 µM (active)

CCc1ccc(C(c2ccc(CC)cc2)C(Cl)Cl)cc1
AC50 [21]: 22.4 µM (inconclusive)

From ChEMBL document CHEMBL1201862, “PubChem BioAssay data set” (2004)
